According to PubChem BioAssay (NCI):
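Results reflect a 48-hour exposure of cells in 96-well plates to compound at five concentrations. At the TGI there is no net growth.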

How the values were obtained:
Test in all cases: growth of human tumour cells (NCI), 48 h
A549 NSCLC = tested on: A549 NSCLC
MOLT-4 leukemia = tested on: MOLT-4 leukemia
OVCAR-4 ovarian = tested on: OVCAR-4 ovarian
NCI-H226 lung = tested on: NCI-H226 lung
RXF 393 renal = tested on: RXF 393 renal
NCI-H23 lung = tested on: NCI-H23 lung
NCI-H460 lung = tested on: NCI-H460 lung
LOX IMVI melanoma = tested on: LOX IMVI melanoma
MDA-MB-231 breast = tested on: MDA-MB-231 breast
SF-268 CNS = tested on: SF-268 CNS
HOP-92 NSCLC = tested on: HOP-92 NSCLC
HOP-62 NSCLC = tested on: HOP-62 NSCLC
U251 CNS = tested on: U251 CNS
HCT-15 colon = tested on: HCT-15 colon
MDA-MB-435 = tested on: MDA-MB-435
KM12 colon = tested on: KM12 colon
OVCAR-3 ovarian = tested on: OVCAR-3 ovarian
786-0 renal = tested on: 786-0 renal
IGROV1 ovarian = tested on: IGROV1 ovarian
HCT-116 colon = tested on: HCT-116 colon
M14 melanoma = tested on: M14 melanoma
NCI-H522 lung = tested on: NCI-H522 lung
SW-620 colon = tested on: SW-620 colon
T-47D breast = tested on: T-47D breast
MDA-N = tested on: MDA-N
PC-3 prostate = tested on: PC-3 prostate
SK-MEL-5 melanoma = tested on: SK-MEL-5 melanoma
SNB-19 CNS = tested on: SNB-19 CNS
BT-549 breast = tested on: BT-549 breast
EKVX NSCLC = tested on: EKVX NSCLC
SK-OV-3 ovarian = tested on: SK-OV-3 ovarian
SK-MEL-28 melanoma = tested on: SK-MEL-28 melanoma
DU-145 prostate = tested on: DU-145 prostate
SF-295 CNS = tested on: SF-295 CNS
UACC-257 melanoma = tested on: UACC-257 melanoma
NCI/ADR-RES ovarian = tested on: NCI/ADR-RES ovarian
SN12C renal = tested on: SN12C renal
K-562 leukemia = tested on: K-562 leukemia
UO-31 renal = tested on: UO-31 renal
CCRF-CEM leukemia = tested on: CCRF-CEM leukemia
OVCAR-8 ovarian = tested on: OVCAR-8 ovarian
HT29 colon = tested on: HT29 colon
OVCAR-5 ovarian = tested on: OVCAR-5 ovarian
HS 578T breast = tested on: HS 578T breast
CAKI-1 renal = tested on: CAKI-1 renal
COLO 205 colon = tested on: COLO 205 colon
UACC-62 melanoma = tested on: UACC-62 melanoma
HCC-2998 colon = tested on: HCC-2998 colon
MALME-3M melanoma = tested on: MALME-3M melanoma
SK-MEL-2 melanoma = tested on: SK-MEL-2 melanoma
TK-10 renal = tested on: TK-10 renal
MCF7 breast = tested on: MCF7 breast
SF-539 CNS = tested on: SF-539 CNS
ACHN renal = tested on: ACHN renal
RPMI-8226 leukemia = tested on: RPMI-8226 leukemia
HL-60(TB) leukemia = tested on: HL-60(TB) leukemia
A498 renal = tested on: A498 renal

SMILES: CC1=C[C@H](O)[C@@]2(C)[C@@H]([C@@H]1C)[C@H]1CC[C@@H]3[C@@]4(C)CC[C@H](O)C(C)(C)[C@@H]4CC[C@@]3(C)[C@]1(C)C[C@@H]2O
- TGI (A549 NSCLC): 26.9 µM
- TGI (MOLT-4 leukemia): 34.5 µM
- TGI (OVCAR-4 ovarian): 33.7 µM
- TGI (NCI-H226 lung): 45.7 µM
- TGI (RXF 393 renal): 34.1 µM
- TGI (NCI-H23 lung): 45.3 µM
- TGI (NCI-H460 lung): 33.4 µM
- TGI (LOX IMVI melanoma): 54 µM
- TGI (MDA-MB-231 breast): 35.1 µM
- TGI (SF-268 CNS): 25.3 µM
- TGI (HOP-92 NSCLC): 29.6 µM
- TGI (HOP-62 NSCLC): 33.4 µM
- TGI (U251 CNS): 35.2 µM
- TGI (HCT-15 colon): 41.3 µM
- TGI (MDA-MB-435): 39.3 µM
- TGI (KM12 colon): 39.2 µM
- TGI (OVCAR-3 ovarian): 31.4 µM
- TGI (786-0 renal): 28.2 µM
- TGI (IGROV1 ovarian): 41.2 µM
- TGI (HCT-116 colon): 25.1 µM
- TGI (M14 melanoma): 31.6 µM
- TGI (NCI-H522 lung): 38 µM
- TGI (SW-620 colon): 47.3 µM
- TGI (T-47D breast): 28.9 µM
- TGI (MDA-N): 29.7 µM
- TGI (PC-3 prostate): 35.1 µM
- TGI (SK-MEL-5 melanoma): 30.4 µM
- TGI (SNB-19 CNS): 30.1 µM
- TGI (BT-549 breast): 45.1 µM
- TGI (EKVX NSCLC): 25.6 µM
- TGI (SK-OV-3 ovarian): 35.7 µM
- TGI (SK-MEL-28 melanoma): 34.4 µM
- TGI (DU-145 prostate): 31 µM
- TGI (SF-295 CNS): 31.1 µM
- TGI (UACC-257 melanoma): 34.5 µM
- TGI (NCI/ADR-RES ovarian): 44.5 µM
- TGI (SN12C renal): 29.2 µM
- TGI (K-562 leukemia): 48.2 µM
- TGI (UO-31 renal): 33.2 µM
- TGI (CCRF-CEM leukemia): 40.5 µM
- TGI (OVCAR-8 ovarian): 48 µM
- TGI (HT29 colon): 27.1 µM
- TGI (OVCAR-5 ovarian): 29.4 µM
- TGI (HS 578T breast): 55 µM
- TGI (CAKI-1 renal): 36.6 µM
- TGI (COLO 205 colon): 37.9 µM
- TGI (UACC-62 melanoma): 35.3 µM
- TGI (HCC-2998 colon): 33 µM
- TGI (MALME-3M melanoma): 40.7 µM
- TGI (SK-MEL-2 melanoma): 38.4 µM
- TGI (TK-10 renal): 36.8 µM

SMILES: Cc1ccc(Nc2nc(C)c(C(=O)CC(=O)C(=O)Nc3c(C)cccc3C(C)(C)C)s2)cc1
- TGI (A549 NSCLC): > 100 µM
- TGI (MOLT-4 leukemia): > 100 µM
- TGI (OVCAR-4 ovarian): > 100 µM
- TGI (NCI-H226 lung): > 100 µM
- TGI (RXF 393 renal): > 100 µM
- TGI (NCI-H23 lung): > 100 µM
- TGI (NCI-H460 lung): > 100 µM
- TGI (MCF7 breast): > 100 µM
- TGI (LOX IMVI melanoma): > 100 µM
- TGI (MDA-MB-231 breast): > 100 µM
- TGI (SF-268 CNS): > 100 µM
- TGI (HOP-92 NSCLC): > 100 µM
- TGI (HOP-62 NSCLC): > 100 µM
- TGI (U251 CNS): > 100 µM
- TGI (HCT-15 colon): > 100 µM
- TGI (MDA-MB-435): > 100 µM
- TGI (KM12 colon): > 100 µM
- TGI (OVCAR-3 ovarian): > 100 µM
- TGI (786-0 renal): > 100 µM
- TGI (IGROV1 ovarian): > 100 µM
- TGI (HCT-116 colon): > 100 µM
- TGI (M14 melanoma): > 100 µM
- TGI (NCI-H522 lung): > 100 µM
- TGI (SW-620 colon): > 100 µM
- TGI (T-47D breast): > 100 µM
- TGI (MDA-N): > 100 µM
- TGI (PC-3 prostate): > 100 µM
- TGI (SF-539 CNS): > 100 µM
- TGI (SK-MEL-5 melanoma): > 100 µM
- TGI (ACHN renal): > 100 µM
- TGI (RPMI-8226 leukemia): > 100 µM
- TGI (SNB-19 CNS): > 100 µM
- TGI (BT-549 breast): > 100 µM
- TGI (EKVX NSCLC): > 100 µM
- TGI (SK-OV-3 ovarian): > 100 µM
- TGI (DU-145 prostate): > 100 µM
- TGI (SF-295 CNS): > 100 µM
- TGI (UACC-257 melanoma): > 100 µM
- TGI (NCI/ADR-RES ovarian): > 100 µM
- TGI (HL-60(TB) leukemia): > 100 µM
- TGI (SN12C renal): > 100 µM
- TGI (A498 renal): > 100 µM
- TGI (K-562 leukemia): > 100 µM
- TGI (UO-31 renal): > 100 µM
- TGI (CCRF-CEM leukemia): > 100 µM
- TGI (OVCAR-8 ovarian): > 100 µM
- TGI (HT29 colon): > 100 µM
- TGI (OVCAR-5 ovarian): > 100 µM
- TGI (HS 578T breast): > 100 µM
- TGI (CAKI-1 renal): > 100 µM
- TGI (COLO 205 colon): > 100 µM
- TGI (UACC-62 melanoma): > 100 µM
- TGI (HCC-2998 colon): > 100 µM
- TGI (SK-MEL-2 melanoma): > 100 µM
- TGI (TK-10 renal): > 100 µM
